Measured values taken from ChEMBL document CHEMBL1142892, “Synthesis and antitumor activity of indolylpyrimidines: marine natural product meridianin D analogues” (Bioorg Med Chem, 2007).
≈ marks a conversion by molar mass, not a printed value. Calls of active or inactive are those of the source. The rule behind the calls is not given here.

How the values were obtained:
Type in all cases: functional, cell-based
[1] = system: HepG2; assay: Cytotoxicity against human HEPG2 cells after 48 hrs by SRB assay
[2] = system: MCF7; assay: Cytotoxicity against human MCF7 after 48 hrs cells by SRB assay
[3] = system: U-251; assay: Cytotoxicity against human U251 cells after 48 hrs by SRB assay
[4] = system: HeLa; assay: Cytotoxicity against human HeLa cells after 48 hrs by SRB assay

| Structure (SMILES) | Activity [1] | IC50 [2] [µg/mL] | Activity [3] | IC50 [4] [µg/mL] |
| --- | --- | --- | --- | --- |
| Nc1ncc(C(=O)O)c(-c2c[nH]c3ccccc23)n1 | inactive | 0.75 (≈ 2.95 µM) | inactive | – |
| N/N=C(\N)c1cnc(N)nc1-c1c[nH]c2ccccc12 | inactive | 0.25 (≈ 0.935 µM) | inactive | – |
| N#Cc1cnc(N)nc1-c1c[nH]c2ccccc12 | inactive | 0.85 (≈ 3.61 µM) | inactive | 2.65 (≈ 11.3 µM) |
| Nc1nccc(-c2c[nH]c3ccccc23)n1 | inactive | – | inactive | – |
